Assays:
[1] = target: T1, recombinant PCSK9 (Homo sapiens, UniProt Q8NBP7); assay: LDLR FACS (flow) Assay in HuH7 cells with recombinant PCSK9; assay type: cell-based; details: 5.0 ug/mL PCSK9, read-out: LDLR Flow Assay: % Inhibition of 5.0 ug/mL recombinant PCSK9 @ X compound dose; for inhibition at 5 µM: Huh-7, 5 uM compound
Protocol: (§1) The cells were incubated in a 96-well plate for a total of 16 h in the absence or presence of recombinant PCSK9 (final concentration 2.5 ug/ml) protein alone or recombinant PCSK9 protein pre-mixed with indicated concentration of experimental compounds (Cmpd #). After 16 h, DiI-LDL (final concentration 5 ug/ml) was added to the incubation mixtures. After 4 h, cells are stained with Hoechst 33342 for 30 minutes, then rinsed with phosphate buffered saline, and then a final volume of 100 ul phosphate buffered saline was added to each well. The fluorescence was measured (DiI: excitation at 550 nm and emission at 590 nm; Hoechst: excitation at 355 nm, emission at 460 nm). […] The cells were incubated in 24-well plates for a total of 6 h in the absence or presence of recombinant PCSK9 protein (final concentration of 5.0 ug/ml), or in the presence of PCSK9 protein mixed with indicated concentration of experimental compound (Cmpd #). After 6 hours, the cells were released from the plate, stained with anti-LDLR antibody, then rinsed, counterstained with DAN, and then measured by fluorescence activated cell sorting (FACS). The percent recombinant PCSK9 inhibition was calculated as [‘Compound Dose LDLR Fluorescence’-‘5.0 ug/ml PCSK9-treated LDLR Fluorescence’]/[‘PCSK9 Basal LDLR Fluorescence’-‘5.0 ug/ml PCSK9-treated LDLR Fluorescence’]×100%.
LDLR levels can be measured using flow cytometry or fluorescence activated cell sorting (FACS) using protocols adapted from Benjannet et al., “Effects of the prosegment and pH on the activity of PCSK9: evidence for additional processing events” J Biol Chem. 285(52): 40965-40978 (2010) and “Composition and Methods of Use of Small Molecules as Binding Ligands for the Modulation of Proprotein Convertase Subtilisin/Kexin Type 9 (PCSK9) Protein Activity” (WO2016029037), which are incorporated by reference in their entirety.
Cells, such as HepG2, HuH7, FL83B, or a cell line transfected with a short-hairpin PCSK9 knockdown sequence such as HepG2/shPCSK9, HuH7/shPCSK9, or FL,83B/shPCSK9 are plated and cultured at 37° C. for 12-24 h. Culture media is removed and replaced with fresh culture media or culture media plus a predetermined amount of recombinant PCSK9, for example a 10 nM final concentration of PCSK9. Cell culture media can be composed of DMEM (Invitrogen) with 10% fetal bovine serum (Life Technologies) supplemented with penicillin-streptomycin (Life Technologies). Cells are dosed with small molecule test compounds at doses ranging from 0 nM to 100 uM
Following an incubation period of specified length, such as 6 hours, the media is removed and the cells are rinsed three times with a rinse solution (i.e., Dulbecco's phosphate buffered saline (D-PBS, Life Technologies) supplemented with 0.5% bovine serum albumin (BSA, Sigma) and 1 g/L glucose (Sigma)). The fluid is then removed, and cells are released from the plate using TrypLE Express (Life Technologies) per manufacturer's recommend procedures, such as incubation for 5-10 minutes at 37° C. The TyrpLE-Cell suspension is then transferred to 15 mL conical tubes, volume is increased to 2 mL with D-PBS supplemented with 0.5% BSA and […] glucose, and the tubes are centrifuged at 250× gravity for 10 minutes. Following centrifugation, the supernatant is aspirated and the cell pellet is resuspended in 100 uL D-PBS containing 0.5% BSA and […] glucose, and cells are labeled with anti-LDLR antibody per the manufacturer's recommended procedure. The cells are then pelleted by centrifugation, resuspended in 300 uL PBS and counterstained with 4′,6-Diamidino-2-phenylindole (DAPI, Cayman Chemical) as a cell viability marker, other cell viability markers such as 7-aminoactinomycin D (7AAD, Life Technologies) have also been described in the art.
Cells are analyzed for both cell viability marker (dead cells) and LDLR in live cells using a flow cytometer per the manufacturer's operating manual. […]

[2] = target: T1, recombinant PCSK9; assay: DiI-LDL Uptake Assay in HepG2 cells with recombinant PCSK9; assay type: cell-based; details: 2.5 ug/mL PCSK9, read-out: Uptake Assay: % Inhibition of 2.5 ug/mL recombinant PCSK9 @ X compound dose; for inhibition at 1.25 µM: 1.25 uM compound; for inhibition at 10 µM: 10 uM compound; for inhibition at 0.313 µM: 0.313 uM compound
Protocol: as §1
Cellular DiI-LDL uptake can be measured using protocols adapted from Benjannet et al., “Effects of the prosegment and pH on the activity of PCSK9: evidence for additional processing events” J Biol Chem. 285(52): 40965-40978 (2010) and “Composition and Methods of Use of Small Molecules as Binding Ligands for the Modulation of Proprotein Convertase Subtilisin/Kexin Type 9 (PCSK9) Protein Activity” (WO2016029037), which are incorporated by reference in their entirety.
Cells, such as HepG2, HuH7, FL83B, or a cell line transfected with a short-hairpin PCSK9 knockdown sequence such as HepG2/shPCSK9, HuH7/shPCSK9, or FL83B/shPCSK9 are plated and cultured at 37° C. for 12-24 h. Culture media is removed and replaced with fresh lipoprotein-depleted culture media supplemented with 5 ug/mL of DiI-LDL (Kalen Biomedical) or lipoprotein-depleted culture media supplemented with 5 ug/mL of Dil-LDL plus a predetermined concentration of recombinant PCSK9, for example a 10 nM final concentration of PCSK9. Lipoprotein-depleted culture media can be composed of DMEM (Invitrogen) with 10% lipoprotein-depleted fetal bovine serum (Kalen Biomedical) and supplemented with penicillin-streptomycin (Life Technologies). Cells are dosed with small molecule test compounds at doses ranging from 0 nM to 100 uM.
Following an incubation period of specified length, such as 6 hours, Hoechst 33342 (AnaSpec) stain is added to the cell media per manufacturer's instructions and incubated for a specified length (e.g., 30 minutes). The lipoprotein-depleted media is removed and cells rinsed three times with phosphate buffered saline. A final volume of phosphate buffered saline is added back to the wells. The DiI fluorescence is measured with a plate reader using an exciting wavelength of 550 nm and the resulting emission at 590 nm is measured. The Hoechst stain fluorescence is measured with a plate reader using an exciting wavelength of 355 nm and the resulting emission at 460 nm is measured.
Cells are analyzed by for both Hoechst stain (DNA content) and DiI-LDL fluorescence. Cells incubated with small molecule compounds that are inhibitors of PCSK9 will be expected to show increased amounts of DiI-LDL fluorescence, relative to control (no compound) specimens, and cells incubated with small molecule compounds that are activators of PCSK9 will be expected to show decreased amounts of DiI-LDL fluorescence relative to control (no compound) specimens.

T1 sequence (Q8NBP7 153-692): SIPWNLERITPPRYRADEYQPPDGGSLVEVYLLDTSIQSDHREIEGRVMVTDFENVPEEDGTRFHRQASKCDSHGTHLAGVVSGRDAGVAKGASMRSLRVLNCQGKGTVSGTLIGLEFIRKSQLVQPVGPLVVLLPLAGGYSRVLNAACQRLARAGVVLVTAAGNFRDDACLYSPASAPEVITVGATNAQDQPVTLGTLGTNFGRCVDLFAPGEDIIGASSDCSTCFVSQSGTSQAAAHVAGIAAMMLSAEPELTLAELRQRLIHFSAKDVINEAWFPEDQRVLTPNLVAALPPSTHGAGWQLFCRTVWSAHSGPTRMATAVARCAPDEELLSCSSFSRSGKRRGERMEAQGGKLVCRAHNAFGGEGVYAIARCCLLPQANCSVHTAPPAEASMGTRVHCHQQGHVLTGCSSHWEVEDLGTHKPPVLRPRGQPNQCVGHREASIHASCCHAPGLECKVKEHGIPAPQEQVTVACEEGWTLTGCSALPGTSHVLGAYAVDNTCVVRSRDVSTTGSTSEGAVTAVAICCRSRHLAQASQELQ

| SMILES | inhibition at 1.25 µM [2] [%] | inhibition at 10 µM [2] [%] | inhibition at 5 µM [1] [%] | inhibition at 0.313 µM [2] [%] | also measured |
| --- | --- | --- | --- | --- | --- |
| Cc1cc2c(cc1-c1ccccc1F)C(=O)NCC2 [Compound 5, 7-(2-fluorophenyl)-6-methyl-3,4-dihydroisoquinolin-1(2H)-one] | ~33 | – | – | – | inhibition at 10 µM ([1]; Huh-7, 10 uM compound): ~10% |
| Cc1cc(-c2ccccc2F)cc2c1CCNC2 [Compound 3, 7-(2-fluorophenyl)-5-methyl-1,2,3,4-tetrahydroisoquinoline] | ~42 | > 100 | – | – | – |
| Cc1cc2c(cc1-c1ccccc1F)CNCC2 [Compound 2, 7-(2-fluorophenyl)-6-methyl-1,2,3,4-tetrahydroisoquinoline] | – | > 100 | ~19 | ~50 | – |
| Cc1cc(-c2ccccc2F)cc2c1CCNC2=O [Compound 4, 7-(2-fluorophenyl)-5-methyl-3,4-dihydroisoquinolin-1(2H)-one] | – | – | ~10 | – | inhibition at 20 µM ([2]; 20 µM compound): ~18% |
| c1ccc(-c2ccc3c(c2)CNCC3)cc1 [Compound 1, 7-phenyl-1,2,3,4-tetrahydroisoquinoline] | – | > 100 | – | ~45 | inhibition at 0.625 µM ([1]; Huh-7, 0.625 uM compound): ~10%; inhibition at 1.25 µM ([1]; Huh-7, 1.25 uM compound): ~15%; inhibition at 20 µM ([1]; Huh-7, 20 uM compound): ~20% |
